ChEMBL document CHEMBL1909046, “DrugMatrix in vitro pharmacology data”

Tests used:
[1] = target: cGMP-specific 3',5'-cyclic phosphodiesterase (Homo sapiens, UniProt O76074); experiment: DRUGMATRIX: Phosphodiesterase PDE5 enzyme inhibition (substrate: [3H]cGMP + cGMP); assay type: tissue-based, Platelet; conditions: platelet; Not Active = under 50% inhibition at 10 µM
[2] = target: T1, 5-hydroxytryptamine receptor 1A (Rattus norvegicus, UniProt P19327); assay type: cell membranes, CHO-K1, Membrane; further: in other assays of this panel Not Active means under 50% inhibition at 10 µM
T1 sequence (P19327 whole entry): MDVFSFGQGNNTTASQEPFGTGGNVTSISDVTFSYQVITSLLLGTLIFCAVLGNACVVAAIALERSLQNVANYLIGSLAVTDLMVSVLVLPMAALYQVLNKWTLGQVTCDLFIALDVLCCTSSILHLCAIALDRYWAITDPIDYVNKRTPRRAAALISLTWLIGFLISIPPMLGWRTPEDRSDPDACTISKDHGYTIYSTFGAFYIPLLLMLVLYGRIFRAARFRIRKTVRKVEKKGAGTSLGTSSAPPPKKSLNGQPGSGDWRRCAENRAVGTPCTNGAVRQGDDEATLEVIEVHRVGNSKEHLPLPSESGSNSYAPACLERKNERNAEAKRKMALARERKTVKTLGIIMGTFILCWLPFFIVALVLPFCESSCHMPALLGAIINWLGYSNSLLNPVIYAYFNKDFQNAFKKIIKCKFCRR

[3] = target: Kappa-type opioid receptor (Homo sapiens, UniProt P41145); experiment: DRUGMATRIX: Opiate kappa (OP2, KOP) radioligand binding (ligand: [3H] Diprenorphine); assay type: cell membranes, HEK293, Membrane; conditions: Not Active = under 50% inhibition at 10 µM
Sequence of Kappa-type opioid receptor (P41145 whole entry): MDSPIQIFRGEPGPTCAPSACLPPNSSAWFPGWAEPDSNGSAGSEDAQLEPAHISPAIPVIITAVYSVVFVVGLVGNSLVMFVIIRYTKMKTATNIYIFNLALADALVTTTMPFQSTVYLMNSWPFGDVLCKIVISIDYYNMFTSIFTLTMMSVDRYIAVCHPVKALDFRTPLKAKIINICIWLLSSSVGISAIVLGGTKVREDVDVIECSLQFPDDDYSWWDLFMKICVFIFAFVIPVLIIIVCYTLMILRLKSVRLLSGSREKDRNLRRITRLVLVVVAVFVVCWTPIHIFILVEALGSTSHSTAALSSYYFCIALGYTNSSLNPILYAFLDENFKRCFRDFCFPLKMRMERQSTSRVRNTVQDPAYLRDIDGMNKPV

[4] = target: T2, Vasoactive intestinal polypeptide receptor 1 (Homo sapiens, UniProt P32241); assay type: cell membranes, Membrane; conditions: ht-29; further: in other assays of this panel Not Active means under 50% inhibition at 10 µM
T2 sequence (P32241 whole entry): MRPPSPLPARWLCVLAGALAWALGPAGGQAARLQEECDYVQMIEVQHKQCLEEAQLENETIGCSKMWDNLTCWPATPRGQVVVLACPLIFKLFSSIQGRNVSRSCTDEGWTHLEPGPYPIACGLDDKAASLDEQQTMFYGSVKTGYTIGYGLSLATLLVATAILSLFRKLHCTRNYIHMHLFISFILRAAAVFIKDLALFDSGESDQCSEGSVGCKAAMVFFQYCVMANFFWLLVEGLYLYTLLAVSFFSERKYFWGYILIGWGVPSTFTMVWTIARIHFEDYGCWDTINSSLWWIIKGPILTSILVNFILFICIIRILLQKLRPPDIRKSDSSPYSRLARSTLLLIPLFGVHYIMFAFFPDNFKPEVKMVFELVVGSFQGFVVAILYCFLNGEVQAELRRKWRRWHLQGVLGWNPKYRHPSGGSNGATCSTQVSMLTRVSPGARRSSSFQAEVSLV

[5] = DRUGMATRIX: Imidazoline I2, Central radioligand binding (ligand: [3H] Idazoxan); assay type: cell membranes, Rattus norvegicus, Wistar, Cerebral cortex, Membrane; conditions: Not Active = under 50% inhibition at 10 µM
[6] = DRUGMATRIX: Serotonin (5-Hydroxytryptamine) 5-HT3 radioligand binding (ligand: [3H] GR-65630); assay type: cell membranes, Membrane; conditions: hek293; Not Active = under 50% inhibition at 10 µM
Caspase-1 = target: T3, Caspase-1 (Homo sapiens, UniProt P29466); parameters: species or system Escherichia coli;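 further: Caspase-1 enzyme inhibition assay with a peptide substrate; in other assays of this panel Not Active means under 50% inhibition at 10 µM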
T3 sequence (P29466 whole entry): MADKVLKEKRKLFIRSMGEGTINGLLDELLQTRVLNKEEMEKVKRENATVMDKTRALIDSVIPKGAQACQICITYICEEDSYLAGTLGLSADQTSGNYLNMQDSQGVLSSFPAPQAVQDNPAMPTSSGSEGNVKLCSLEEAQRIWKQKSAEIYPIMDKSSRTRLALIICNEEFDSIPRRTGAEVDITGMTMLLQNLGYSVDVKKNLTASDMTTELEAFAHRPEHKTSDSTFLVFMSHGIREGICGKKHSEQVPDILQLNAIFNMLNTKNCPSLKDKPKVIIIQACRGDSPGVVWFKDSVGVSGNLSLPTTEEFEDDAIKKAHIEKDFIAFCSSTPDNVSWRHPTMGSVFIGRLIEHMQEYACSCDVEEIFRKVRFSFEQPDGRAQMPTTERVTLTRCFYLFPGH

Compound | IC50 [1] | IC50 ([2]; cho-k1) | IC50 ([3]; hek293) | IC50 [4] | IC50 [5] | Ki [5] | IC50 [6] | Ki [6] | IC50 (Caspase-1) | IC50 [2] [µM] | Ki ([2]; read-out: Ki) [µM] | IC50 ([5]; read-out: IC50) [µM] | Ki ([5]; read-out: Ki) [µM] | IC50 ([2]; read-out: IC50) [µM] | Ki [3] [µM] | IC50 ([3]; read-out: IC50) [µM] | Ki [1] | Ki ([2]; cho-k1) | Ki [4] | Ki (Caspase-1)
Cc1c(C)c2c(c(C)c1O)CCC(C)(CN1CCN(c3cc(N4CCCC4)nc(N4CCCC4)n3)CC1)O2 (stereo unspecified) | Not Active | Not Active | Not Active | Not Active | Not Active | Not Active | Not Active | Not Active | Not Active | – | – | – | – | – | – | – | – | – | – | –
COc1ccc(CCN(C)CCCC(C#N)(c2ccc(OC)c(OC)c2)C(C)C)cc1OC (stereo unspecified) | Not Active | – | Not Active | Not Active | – | – | Not Active | Not Active | Not Active | 3.02 | 1.73 | 5.52 | 3.68 | – | – | – | – | – | – | –
CC(C)Cc1ccc([C@@H](C)C(=O)O)cc1 [(R)-IBUPROPHEN] | Not Active | Not Active | Not Active | Not Active | Not Active | Not Active | Not Active | Not Active | Not Active | – | – | – | – | – | – | – | – | – | – | –
CN(C)CCOC(c1ccccc1)c1ccccc1 [DIPHENHYDRAMINE] | Not Active | Not Active | Not Active | Not Active | – | – | – | – | Not Active | – | – | – | – | – | – | – | – | – | – | –
Clc1ccc(COC(Cn2ccnc2)c2ccc(Cl)cc2Cl)cc1 (stereo unspecified) [ECONAZOLE] | Not Active | – | – | Not Active | – | – | – | – | Not Active | – | 9.24 | – | – | 16.2 | 3.45 | 8.62 | – | – | – | –
CCN(CC)CCOc1ccc(/C(=C(/Cl)c2ccccc2)c2ccccc2)cc1 [ENCLOMIPHENE] | Not Active | Not Active | Not Active | Not Active | – | – | – | – | Not Active | – | – | – | – | – | – | – | – | – | – | –
Fc1ccc(C(c2ccc(F)cc2)N2CCN(C/C=C/c3ccccc3)CC2)cc1 [FLUNARIZINE] | Not Active | – | Not Active | Not Active | – | – | – | – | Not Active | – | 2.45 | – | – | 4.28 | – | – | – | – | – | –
CNCCC(Oc1ccc(C(F)(F)F)cc1)c1ccccc1 (stereo unspecified) [FLUOXETINE] | Not Active | Not Active | Not Active | Not Active | – | – | – | – | Not Active | – | – | – | – | – | – | – | – | – | – | –
Cc1ccc(NC(=O)c2ccc(CN3CCN(C)CC3)cc2)cc1Nc1nccc(-c2cccnc2)n1 [IMATINIB] | Not Active | Not Active | Not Active | Not Active | – | – | – | – | Not Active | – | – | – | – | – | – | – | – | – | – | –
CC(C)Oc1ccc2c(=O)c(-c3ccccc3)coc2c1 [IPRIFLAVONE] | Not Active | Not Active | Not Active | Not Active | Not Active | Not Active | Not Active | Not Active | Not Active | – | – | – | – | – | – | – | – | – | – | –
CC(C)NCC(O)c1ccc(O)c(O)c1 (stereo unspecified) [ISOPROTERENOL] | Not Active | Not Active | Not Active | Not Active | Not Active | Not Active | Not Active | Not Active | Not Active | – | – | – | – | – | – | – | – | – | – | –
CNC1(c2ccccc2Cl)CCCCC1=O (stereo unspecified) [KETAMINE] | Not Active | Not Active | Not Active | Not Active | Not Active | Not Active | Not Active | Not Active | Not Active | – | – | – | – | – | – | – | – | – | – | –
N#Cc1ccc(C(c2ccc(C#N)cc2)n2cncn2)cc1 [LETROZOLE] | Not Active | Not Active | Not Active | Not Active | Not Active | Not Active | Not Active | Not Active | Not Active | – | – | – | – | – | – | – | – | – | – | –
CCN1CCC[C@H]1CNC(=O)c1cc(S(N)(=O)=O)ccc1OC [LEVOSULPIRIDE] | Not Active | Not Active | Not Active | Not Active | Not Active | Not Active | Not Active | Not Active | Not Active | – | – | – | – | – | – | – | – | – | – | –
CCN(CC)CC(=O)Nc1c(C)cccc1C [LIDOCAINE] | Not Active | Not Active | Not Active | Not Active | Not Active | Not Active | Not Active | Not Active | Not Active | – | – | – | – | – | – | – | – | – | – | –
O=C1Nc2ccc(Cl)cc2C(c2ccccc2Cl)=NC1O (stereo unspecified) [LORAZEPAM] | Not Active | Not Active | Not Active | Not Active | Not Active | Not Active | Not Active | Not Active | Not Active | – | – | – | – | – | – | – | – | – | – | –
CO[C@@H]1[C@@H](OC)[C@H](C)[C@@](O)(CC(=O)O)O[C@H]1[C@H](C)[C@H]1O[C@@]2(CC[C@@](C)([C@H]3CC[C@@](C)([C@@H]4O[C@@H]([C@H]5O[C@](C)(O)[C@H](C)C[C@@H]5C)C[C@@H]4O[C@@H]4C[C@H](OC)[C@@H](OC)[C@H](C)O4)O3)O2)C[C@H](O)[C@H]1C [MADURAMICIN ACID] | Not Active | – | Not Active | Not Active | – | – | Not Active | Not Active | Not Active | – | 0.00447 | 0.607 | 0.405 | 0.00783 | – | – | – | – | – | –
COc1c2occc2cc2ccc(=O)oc12 [METHOXSALEN] | Not Active | Not Active | Not Active | Not Active | Not Active | Not Active | Not Active | Not Active | Not Active | – | – | – | – | – | – | – | – | – | – | –
C[C@H]1C[C@@H]2[C@H]([C@@H](O)C[C@@]3(C)[C@H]2CC[C@]3(O)C(=O)CO)[C@@]2(C)C=CC(=O)C=C12 [METHYLPREDNISOLONE] | Not Active | Not Active | Not Active | Not Active | Not Active | Not Active | Not Active | Not Active | Not Active | – | – | – | – | – | – | – | – | – | – | –
Cc1cccc(C)c1OCC(C)N (stereo unspecified) [MEXILETINE] | Not Active | Not Active | Not Active | Not Active | Not Active | Not Active | Not Active | Not Active | Not Active | – | – | – | – | – | – | – | – | – | – | –
CC[C@@H](C(=O)[C@@H](C)[C@@H](O)[C@H](C)[C@@H]1O[C@@H]([C@@H](CC)C(=O)O)CC[C@@H]1C)[C@H]1O[C@]2(C=C[C@@H](O)[C@]3(CC[C@@](C)([C@H]4CC[C@](O)(CC)[C@H](C)O4)O3)O2)[C@H](C)C[C@@H]1C [SALINOMYCIN] | Not Active | Not Active | – | Not Active | Not Active | Not Active | Not Active | Not Active | Not Active | – | – | – | – | – | – | – | – | – | – | –
CN[C@H]1CC[C@@H](c2ccc(Cl)c(Cl)c2)c2ccccc21 [SERTRALINE] | Not Active | Not Active | Not Active | Not Active | – | – | – | – | Not Active | – | – | – | – | – | – | – | – | – | – | –
O=C(Nc1ccc(Br)cc1)c1cc(Br)cc(Br)c1O [TRIBROMSALAN] | Not Active | Not Active | – | Not Active | Not Active | Not Active | Not Active | Not Active | Not Active | – | – | – | – | – | – | – | – | – | – | –
MANGANESE CHLORIDE ANHYDROUS | Not Active | Not Active | – | Not Active | Not Active | Not Active | Not Active | Not Active | Not Active | – | – | – | – | – | – | – | Not Active | Not Active | Not Active | Not Active
SODIUM ORTHOVANAD | Not Active | Not Active | – | Not Active | Not Active | Not Active | Not Active | Not Active | Not Active | – | – | – | – | – | – | – | Not Active | Not Active | Not Active | Not Active
